The record followed here is US11324794B2, “Composition for preventing, improving, or treating decrease in intestinal function, comprising bamboo shoot hydrolyzate or fermented bamboo shoot as active ingredient” (OZLDNF CO., LTD., priority 2017, dated 2022).

Each structure is given as a SMILES string.

Data set [1] relates to Sprague Dawley (SD) rat. In words: Counting number of intestinal stools remaining in the colon tract. Format: in vivo. Conditions: oral, 8th day. An excerpt:
(§1) Laboratory […] under the following conditions were used. • Genealogy and Species: Sprague Dawley (SD) rat • Source: Samtaco Co., Ltd. • Number of purchased animals and gender: Male • Age (week) of purchased animals and weight range: 6 weeks, 190 to 220 • Number of animals (male) at the time of administration: 49 • Age (week) of animals and weight range at the time of administration: 7 weeks, 210 to 240 g.
(§2) After one week of acclimation, the test substance, that is, ioperamide as a conventional constipation inductive material, bisacodyl as a conventional constipation therapeutic agent, the enzyme-degraded products in Examples 1 and 2 (fermented for 24 hours) and the fermented products in Examples 3 and 4, respectively, were repeatedly administered in the stomach once a day for a total of 7 days by means of a syringe for oral administration (Sonde). Except for the control group (Con), all test groups were subjected to administration of loperamide (4 mg/kg) in order to induce constipation.
The number of intestinal stools was counted by scarifying a laboratory rat on the 8th day after administration of loperamide and observing the number of feces remaining in the colon tract.
On the last day of the experiment, all laboratory animals were sacrificed and the number of feces remaining in the rectal region was measured.

Data set [2] relates to Sprague Dawley (SD) rat. In words: Measurement of water content of feces. Type of data set: in vivo. The conditions noted are these: Bis group: loperamide 4 mg/kg + bisacodyl 4 mg/kg, oral; comparison group 29.98±1.89%.
From the text: as §1, §2
The feces were sampled daily and the number and weight of the feces were measured. Further, the sampled feces were dried in a drier at 70° C. for 24 hours. A percentage of water content was calculated by subtracting the weight after drying from the weight before drying to estimate the water content and converting the estimated value as the percentage to a total weight of the feces.

Data set [3] has as its system Sprague Dawley (SD) rat. In words: Digestive tract migration rate (activated charcoal). Type of data set: in vivo. Conditions: oral, 7th day, 30 minutes after charcoal.
From the text: as §1
(§3) After one week of acclimation, the test substance, that is, ioperamide as a conventional constipation inductive material, bisacodyl as a conventional constipation therapeutic agent, the enzyme-degraded products in Examples 1 and 2 (fermented for 24 hours) and the fermented products in Examples 3 and 4, respectively, were repeatedly administered in the stomach once a day for a total of 7 days by means of a syringe for oral administration (Sonde). […]
After fasting a laboratory animal for 15 hours on the 7th day of constipation induction, a 0.5 ml suspension including 10% Arabic gum (Sigma, USA) and 5% activated charcoal (Sigma, USA) was orally administered to the animal. 30 minutes later, the animal was sacrificed, the gastrointestinal tract was removed, and a migration rate was calculated by dividing a length wherein green colored feces are excreted among the intestinal tract length between the duodenum and the rectum, with passage of time. […]

The test system of data set [4] is Sprague Dawley (SD) rat. In words: Measurement of number of feces and feces weight change in loperamide-induced constipation. Conditions: oral. Type of data set: in vivo.
From the text: as §1, §2
The feces were sampled daily and the number and weight of the feces were measured. Further, the sampled feces were dried in a drier at 70° C. for 24 hours.

A short description of data set [5]: Measurement of body weight, dietary intake and amount of drinking water. Type of data set: in vivo, Sprague Dawley (SD) rat. The conditions noted are these: Lop group: loperamide 4 mg/kg alone, oral.
From the text: as §1, §3
The body weight was measured twice a week on the day before the experiment when group separation was conducted, and twice a week on the day after administration, respectively. The experimental dietary intake was measured by feeding 100 g of test diet at a predetermined time and, after 24 hours, the remaining amount was measured to determine the dietary intake. The drinking water was fed by 250 ml at a predetermined time and the remaining water was measured on the next day to determine a total amount of the water intake. […]

Where [6] appears, read: Bis group: loperamide 4 mg/kg + bisacodyl 4 mg/kg.

As to `CC(=O)Oc1ccc(C(c2ccc(OC(C)=O)cc2)c2ccccn2)cc1` [Bisacodyl], the “Number of feces remaining in the intestinal tract” value in the data set with Sprague Dawley (SD) rat [1] (setting [6]) amounted to 3.62±0.86. The “Water content of the feces” value in the data set with Sprague Dawley (SD) rat [2] was determined as 44.02±1.34%. Besides, the “Digestive tract migration rate” value in the data set on Sprague Dawley (SD) rat [3] (setting [6]) amounted to 65.02±2.86%. The Weight of feces with Sprague Dawley (SD) rat [4] (setting [6]) came out at 6.82 ± 0.35 g.

As for `CN(C)C(=O)C(CCN1CCC(O)(c2ccc(Cl)cc2)CC1)(c1ccccc1)c1ccccc1` [Loperamide], the “Body weight change (g) (B) − (A)” value in data set [5] (7 days) was 73.45 ± 5.48 g. In addition, the “Body weight (g) After test (B)” value in data set [5] (once a day for 7 days) stood at 278.58 ± 6.82 g. In the data set on Sprague Dawley (SD) rat [1] (Lop group: loperamide 4 mg/kg alone, Con group 1.86±0.55), the “Number of feces remaining in the intestinal tract” value is given as 5.66±0.63. The “Digestive tract migration rate” value with Sprague Dawley (SD) rat [3] (Lop group: loperamide 4 mg/kg alone, Con group 68.63±2.72%) is listed as 42.10±3.49%. Besides, the Number of feces with Sprague Dawley (SD) rat [4] (Lop group: loperamide 4 mg/kg alone, 7th day after induction of constipation, Con group 55.14±2.06) was 44.40±2.54. This molecule also displayed a Weight of feces in the data set on Sprague Dawley (SD) rat [4] (Lop group: loperamide 4 mg/kg alone, Con group 7.52±0.30 g) of 5.02 ± 0.36 g.
